Values after ≈ are worked out from the molar mass of the structure shown. Structures can show the parent of a compound that is named as a salt. Where two headings read alike, the source gives them in different places.
Assays:
[1] = tested on: Escherichia coli NCTC 8196; test: MIC, two-fold microdilution (EUCAST), E. coli reference strain; type: cell-based; details: read-out: MIC (µM) Escherichia coli NCTC 8196
From the text: (§1) A panel of reference bacteria, including Escherichia coli NCTC 8196, Staphylococcus aureus ATCC 6538, Klebsiella pneumoniae ATCC 13883, and Pseudomonas aeruginosa NCTC 6749, was used to assess the antibacterial activity of the nine tested aziridine phosphines (1–4) and aziridine phosphine oxides (5–9). The two-fold microdilution method, following EUCAST guidelines, was used to determine a minimal inhibitory concentration (MIC) of each compound, as presented in Table S1.
(§2) Antibacterial activity: The in vitro antibacterial activity of nine tested aziridine phosphines (1–4) and aziridine phosphine oxides (5–9) was evaluated against reference bacterial strains (E. coli NCTC 8196, S. aureus ATCC 6538, K. pneumoniae ATCC 13883, P. aeruginosa NCTC 6749) and 12 S. aureus clinical isolates, including two methicillin-resistant isolates (MRSA, D15 and D17) obtained from infected patients hospitalized at the Oncological Hospital in Lodz (Poland). All strains were kept frozen at −80 °C in Tryptic Soy Broth with 15% glycerol. The minimal inhibitory concentration (MIC) is defined as the lowest concentration of the compound that prevents visible growth of bacteria using the microdilution method followed the EUCAST guidelines. Each compound was added to 96-well microplates in two-fold dilutions at concentrations from 3.125 to 100 μM in Mueller–Hinton broth. […] Bacterial culture was added into wells at a density of 5 × 10^5 CFU mL^−1, and plates were incubated at 37 °C for 18 h. As a positive control, an untreated bacterial culture was used, and a clear culture medium served as a negative control. The optical density at OD600 was measured using the SpectraMax i3 Multi-Mode Platform (Molecular Devices, San Jose, CA, USA). Ciprofloxacin hydrochloride (CIP, Sigma-Aldrich, Darmstadt, Germany) was used as a reference antimicrobial drug.

[2] = tested on: Staphylococcus aureus ATCC 6538; test: MIC, two-fold microdilution (EUCAST), S. aureus reference strain; type: cell-based; details: read-out: MIC (µM) Staphylococcus aureus ATCC 6538
From the text: as §1, §2

[3] = tested on: Klebsiella pneumoniae ATCC 13883; test: MIC, two-fold microdilution (EUCAST), K. pneumoniae reference strain; type: cell-based; details: read-out: MIC (µM) Klebsiella pneumoniae ATCC 13883
From the text: as §1, §2

L929 cells = test: cells; type: cell-based, murine; details: read-out: IC50 (µM) L929
Procedure: (§3) Considering our previous research and the literature reports on the antitumor activity of aziridine derivatives, aziridine phosphines (1–4) and aziridine phosphine oxides (5–9) were tested to investigate their potential anticancer activity. The in vitro effects on cell viability were assessed using the 3-(4,5-dimethylthiazol-2-yl)-2,5-diphenyltetrazolium bromide (MTT) assay on non-tumorigenic murine fibroblasts (L929) as well as two cancer cell lines: human cervical epithelioid carcinoma (HeLa) cells and endometrial adenocarcinoma (Ishikawa) cells.
(§4) Cell viability inhibition: The in vitro effects on cell viability were determined using the 3-(4,5-dimethylthiazol-2-yl)-2,5-diphenyltetrazolium bromide (MTT) assay on non-tumorigenic murine fibroblasts L929 (ATTC®—CCL-1) as well as two cancer cell lines: human cervical epithelioid carcinoma HeLa cells (ATTC®—CCL-2™) and endometrial adenocarcinoma Ishikawa cells (ECACC 99040201). Cells were cultured on 96-well microplates at a density of 1 × 10^4 cells/well following the international in Dulbecco’s Modified Eagle’s Medium (DMEM, Biowest) supplemented with 10% fetal bovine serum (FBS, Biowest, Nuaillé, France), 100 U/mL of penicillin, and 100 μg/mL of streptomycin (Biowest, Nuaillé, France). After overnight incubation at 37 °C and 5% CO2, the growth medium was removed and 100 μL of fresh media with two-fold dilutions of the tested compounds at concentrations of 3.125–100 μM were added. […] Untreated cells in medium were used as a positive control, while a clear culture medium served as a negative control.

[4] = tested on: Pseudomonas aeruginosa NCTC 6749; test: MIC, two-fold microdilution (EUCAST), P. aeruginosa reference strain; type: cell-based; details: read-out: MIC (µM) Pseudomonas aeruginosa NCTC 6749
From the text: as §1, §2

Ishikawa cells = test: cells; type: cell-based, human; details: for IC50: read-out: IC50 (µM) Ishikawa; for selectivity index (SI) Ishikawa: efficacy against Ishikawa versus normal fibroblasts L929, SI > 1.0 = greater efficacy against cancer cells
Procedure: as §3, §4

HeLa cells = test: cells; type: cell-based, human; details: for IC50: read-out: IC50 (µM) HeLa; for selectivity index (SI) HeLa: efficacy against HeLa versus normal fibroblasts L929, SI > 1.0 = greater efficacy against cancer cells
Procedure: as §3, §4

[5] = tested on: clinical S. aureus strains; test: MIC, microdilution, 12 clinical S. aureus strains; type: cell-based, Staphylococcus aureus; details: panel of 12 clinical isolates (naso-pharynx, ulcers/furuncles, bones), highest tested concentration 100 µM
From the text: as §1, §2

[6] = Escherichia coli, NCTC8196, 18 h
[7] = Staphylococcus aureus, ATCC6538, 18 h
[8] = Klebsiella pneumoniae, ATCC13883, 18 h
[9] = Pseudomonas aeruginosa, NCTC6749, 18 h
[10] = MTT, 24 h treatment, IC50 ± SD, three independent experiments
[11] = tested range 3.125–100 µM, 37 °C, 18 h

| Molecule | MIC [1, 6] [µM] | MIC [2, 7] [µM] | MIC [3, 8] [µM] | IC50 (L929 cells; Mus musculus, L929, 24 h) [µM] | MIC [4, 9] [µM] | IC50 (Ishikawa cells; Homo sapiens, Ishikawa, 24 h) [µM] | selectivity index (SI) Ishikawa (Ishikawa cells) | IC50 (HeLa cells; Homo sapiens, 24 h) [µM] | selectivity index (SI) HeLa (HeLa cells) | other results |
| --- | --- | --- | --- | --- | --- | --- | --- | --- | --- | --- |
| CC(C)[C@@H]1CN1c1ccccc1P(c1ccccc1)c1ccccc1 [Compound 1] | > 100 | 50 (≈ 17.3 µg/mL) | > 100 | 68.1 ± 11.2 | > 100 | 13.9 ± 7.1 | 4.9 | > 100 | < 1 | – |
| c1ccc([C@H]2CN2c2ccccc2P(c2ccccc2)c2ccccc2)cc1 [Compound 4] | > 100 | 50 (≈ 19 µg/mL) | > 100 | 22 ± 3.4 | > 100 | > 100 | < 1 | 39.2 ± 6.7 | < 1 | – |
| CC(C)[C@H]1CN1c1ccccc1P(=O)(c1ccccc1)c1ccccc1 [Compound 6] | > 100 | 50 (≈ 18.1 µg/mL) | > 100 | 13.7 ± 3.1 | > 100 | 16.6 ± 2.5 | < 1 | 40.7 ± 11.1 | < 1 | MIC ([5]; Staphylococcus aureus): 100 µM (≈ 36.1 µg/mL); MIC [5]: 100 µM (≈ 36.1 µg/mL) |
| N.N.[Cl][Pt][Cl] [CisPt, cisplatin, reference compound] | – | – | – | – | – | – | – | – | – | IC50 (L929 cells; [10]): 26.2 ± 7.5 µM; IC50 (Ishikawa cells; [10]): 17.3 ± 5.2 µM; IC50 (HeLa cells; [10]): 10.4 ± 4.4 µM |
| O=C(O)c1cn(C2CC2)c2cc(N3CCNCC3)c(F)cc2c1=O [CIP, Ciprofloxacin hydrochloride, reference compound] | – | – | – | – | – | – | – | – | – | MIC ([1]; Escherichia coli, NCTC8196, tested range 3.125–100 µM, 37 °C, 18 h): 0.04 µM; MIC ([2]; Staphylococcus aureus, ATCC6538, tested range 3.125–100 µM, 37 °C, 18 h): 1.6 µM; MIC ([3]; Klebsiella pneumoniae, ATCC13883, tested range 3.125–100 µM, 37 °C, 18 h): 0.2 µM; MIC ([4]; Pseudomonas aeruginosa, NCTC6749, tested range 3.125–100 µM, 37 °C, 18 h): 2.5 µM |
| (2S)-2-diphenylphosphinoyl-2-phenylaziridine [Compound 9] | – | – | – | – | – | – | – | – | – | MIC [1, 11]: > 100 µM; MIC [2, 11]: 50 µM; MIC [3, 11]: > 100 µM; IC50 (L929 cells; [10]): > 100 µM; MIC [4, 11]: > 100 µM; IC50 (Ishikawa cells; [10]): > 100 µM; IC50 (HeLa cells; [10]): 48.8 ± 12.3 µM |
| CC(C)[C@H]1CN1c1ccccc1P(c1ccccc1)c1ccccc1 [Compound 2] | > 100 | 50 (≈ 17.3 µg/mL) | > 100 | > 100 | > 100 | 14.8 ± 6.5 | > 6.7 | > 100 | – | – |
| O=P(c1ccccc1)(c1ccccc1)c1ccccc1N1C[C@@H]1c1ccccc1 [Compound 8] | > 100 | 50 (≈ 19.8 µg/mL) | > 100 | 17 ± 4.4 | > 100 | 23.4 ± 7.6 | < 1 | 19.6 ± 3.2 | < 1 | – |
| CC(C)C[C@H]1CN1c1ccccc1P(c1ccccc1)c1ccccc1 [Compound 3] | > 100 | 50 (≈ 18 µg/mL) | > 100 | > 100 | > 100 | > 100 | – | 30.3 ± 4.5 | > 3.3 | – |
